One assay concerns the target Cathepsin D (Homo sapiens (Human), UniProt P07339). The experiment in a line: Cathepsin D FP assay. In kind it is biochemical. Particulars: pH 4.5, read-out: CatD FP IC50. The method, then:
(§1) BACE1 activity can be assessed in an AlphaScreen® assay. Compounds to be assessed (e.g. compounds as described in the above examples) are serially diluted 1:4 in DMSO, then plated by diluting 10 μL of compound with 40 μl of assay buffer (1×PBS, 0.01% Tween-20, pH 7.0, 0.05% BSA). The diluted compound is transferred (4 μL per well) to a 386 well assay plate and 4 μL of BACE1 enzyme ([…]) is added and incubated for 15 minutes. This assay uses a probe that is a BACE1 binding sight ligand linked to biotin, which can be displaced by test compound dependent on compound binding affinity. This of biotinylated probe (4 μL) is added and incubated for 1 hour, followed with 4 μL of donor and acceptor bead mixture and incubated for 2 hours. The fluorescent signal is read on a plate reader and the value as a function of compound concentration is used to determine the IC50. Compounds are also assessed for BACE1 and Cathepsin D activity using an FP Assay. Compounds to be assessed (e.g. compounds as described in the above examples) are serially diluted 1:3 with DMSO and each concentration point is transferred to a 96 well plate, 6 μL per well, followed by addition of 194 μL of assay buffer (100 mM sodium acetate, pH 4.5 with 0.001% Tween-20). A 10 μL compound sample from this plate is transferred to a well of a 384 well plate and combined with 10 μL per well of BACE1 enzyme (0.3 nM in assay buffer) or Cathepsin D enzyme (1.8 nM in assay buffer) and the plate is incubated at room temperature for 30 minutes.

Assay [1] addresses T1, BACE1 (Homo sapiens (Human), UniProt P56817). The experiment in a line: BACE1 AlphaScreen assay (displacement of biotinylated BACE1 binding site probe). To be noted: read-out: BACE1 AS IC50. Here is the method: as §1
Assay [2] relates to BACE1 inhibition in HEKp293 cells transfected with APP751 gene (SWE293). As to the kind of experiment: SWE293 cellular assay: reduction of Aβ peptide production, ELISA. In kind it is cell-based. Particulars: Homo sapiens, read-out: SWE293 ED50. Here is the method:
BACE1 inhibition is also assessed in a cellular assay. HEKp293 cells transfected with APP751 gene (SWE293, American Type Culture Collection CRL-1563) are used to assess compounds for reduction in levels of Aβ peptide production. SWE293 cell medium is DMEM supplemented with 10% fetal bovine serum and 2 mM L-glutamine, 1.0 mM sodium pyruvate, 25 mM Hepes Buffer, 0.4 mg/mL geneticin (G418, Gibco BRL 860-181IIJ). Cells are maintained diluting 1:10 for 4 days in T-150 flask and 35 mL of cell media. For plating, cells are rinsed with 5 mL of 1×PBS, trypsinized with 4 mL of 0.05% Tripsin for 1 minute, and 12 mL of cell media is added. These are centrifuged at 1000 rpm for 4 minutes and the media aspirated, then 8 mL of media per flask is added. Based on cell count, appropriate amounts of cell and cell media are combined, and 180 μl per well are plated (96 well) and the plates are incubated overnight at 37° C., 5% CO2. Compounds to be tested are serially diluted 1:3 in DMSO and twice in media (without G418) in V-bottom plates and incubated at room temperature. Plated cells are washed with media, 3×50 μL per well and 17 μL per well of appropriate dilution of compound is added. Plates are incubated for 2 hours, and the wash steps, compound addition and incubation are repeated. Sample is transferred to capture plate (prepared with 266 antibody, see e.g. Johnson-Wood et al., PNAS February 1997, 94: 1550-1555), along with a standard curve of Aβ-40. ELISA assay is used to assess Aβ levels, washing with TBS, 0.05% Tween20 pH 7.5, then adding 1.3 mg/mL 3D6 antibody 1:900 in specimen diluents with thimericol is added (100 μl per well) and incubated for 1 hour. Wash step is repeated and Streptavidin-AP diluted 1:1000 in specimen diluents with thimerisol is added (100 μL per well) and incubated for 1 hour. Wash step is repeated and fluorescent substrate is added, 100 μL per well and incubated for 10 minutes followed by reading the fluorescent signal on a plate reader.
(In an ELISA, binding on a coated surface is turned into a signal by an enzyme label.)

Assay [3] has as its target T1, BACE1. As to the kind of experiment: BACE1 FP assay. It is filed as biochemical. To be noted: pH 4.5. The method, then:
as §1

[4] abbreviates: dose at which Aβ level is reduced by 50%, HEKp293 SWE293 cells.

Each structure is given as a SMILES string. Read-outs that look alike come from different tables or passages of the source.

T1 sequence (P56817 46-501): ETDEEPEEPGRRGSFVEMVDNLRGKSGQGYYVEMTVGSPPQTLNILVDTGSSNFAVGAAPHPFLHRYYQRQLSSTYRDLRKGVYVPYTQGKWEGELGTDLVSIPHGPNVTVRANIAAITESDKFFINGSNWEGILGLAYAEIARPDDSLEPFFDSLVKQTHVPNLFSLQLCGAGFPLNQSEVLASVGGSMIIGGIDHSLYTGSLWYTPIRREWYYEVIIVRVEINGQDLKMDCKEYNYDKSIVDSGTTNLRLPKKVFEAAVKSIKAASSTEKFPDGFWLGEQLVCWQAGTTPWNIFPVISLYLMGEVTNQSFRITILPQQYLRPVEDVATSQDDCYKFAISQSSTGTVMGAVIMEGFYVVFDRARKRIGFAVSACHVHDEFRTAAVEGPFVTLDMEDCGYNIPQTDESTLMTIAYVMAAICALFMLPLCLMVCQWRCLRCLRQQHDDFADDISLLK
Chain of Cathepsin D (P07339 65-412, species assumed): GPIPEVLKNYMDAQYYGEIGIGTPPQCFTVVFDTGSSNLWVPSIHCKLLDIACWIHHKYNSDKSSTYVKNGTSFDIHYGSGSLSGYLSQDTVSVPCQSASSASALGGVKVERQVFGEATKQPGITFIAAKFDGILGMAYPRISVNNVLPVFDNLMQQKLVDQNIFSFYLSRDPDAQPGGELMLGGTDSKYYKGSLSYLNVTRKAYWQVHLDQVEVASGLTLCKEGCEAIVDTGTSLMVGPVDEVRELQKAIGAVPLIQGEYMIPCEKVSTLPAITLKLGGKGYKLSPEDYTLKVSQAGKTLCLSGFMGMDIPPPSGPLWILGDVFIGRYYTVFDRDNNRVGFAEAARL

Turning to `CC#Cc1cncc(-c2csc(C3(C)CC4(CCOCC4)OC(N)=N3)c2)c1` (centres unmarked) [Compound 8-102, 4-methyl-4-(4-(5-(prop-1-ynyl)pyridin-3-yl)thiophen-2-yl)-1,9-dioxa-3-azaspiro[5.5]undec-2-en-2-amine], the IC50 at Cathepsin D came to 4.43 µM; on BACE1 [1], 0.069 µM; in assay [2] it was 0.365 µM; on BACE1 [3] it was 2.29 µM.

For `C[C@@]1(c2cc(NC(=O)c3ccc(Cl)cn3)ccc2F)CC2(CC2)OC(N)=N1` [Compound 9-154, (S)—N-(3-(5-amino-7-methyl-4-oxa-6-azaspiro[2.5]oct-5-en-7-yl)-4-fluorophenyl)-5-chloropicolinamide], the IC50 on Cathepsin D is more than 30 µM; on BACE1 [1], 0.0075 µM; in assay [2] (setting [4]), 0.02 µM; against BACE1 [3], 0.113 µM.

`CC#Cc1cncc(-c2csc([C@]3(C)CC4(CCC(F)(F)CC4)OC(N)=N3)c2)c1` [Compound 8-110, (S)-9,9-difluoro-4-methyl-4-(4-(5-(prop-1-ynyl)pyridin-3-yl)thiophen-2-yl)-1-oxa-3-azaspiro[5.5]undec-2-en-2-amine]: the IC50 was 5.57 µM at Cathepsin D, 0.026 µM at BACE1 [1], 0.305 µM in assay [2] (setting [4]) and 0.96 µM against BACE1 [3].

As to `CC#Cc1cncc(-c2csc([C@@]3(C)CC4(CCOCC4)OC(N)=N3)c2)c1` [Compound 8-105, (R)-4-methyl-4-(4-(5-(prop-1-ynyl)pyridin-3-yl)thiophen-2-yl)-1,9-dioxa-3-azaspiro[5.5]undec-2-en-2-amine], the IC50 at Cathepsin D came out at 5.25 µM; on BACE1 [1], 1.33 µM; in assay [2] it was 7.47 µM; on BACE1 [3] it was 84.9 µM.

As for `CC#Cc1cncc(-c2csc(C3(C)CC4(CCC(F)(F)CC4)OC(N)=N3)c2)c1` (centres unmarked) [Compound 8-109, 9,9-difluoro-4-methyl-4-(4-(5-(prop-1-ynyl)pyridin-3-yl)thiophen-2-yl)-1-oxa-3-azaspiro[5.5]undec-2-en-2-amine], the IC50 stood at 6.29 µM at Cathepsin D, 0.068 µM at BACE1 [1], 0.621 µM in assay [2] (setting [4]) and 1.16 µM at BACE1 [3].

Regarding `COc1cccnc1Nc1ccc(F)c([C@]2(C)CC3(CCOCC3)SC(N)=N2)c1` [Compound 13-182, (S)-4-(2-fluoro-5-(3-methoxypyridin-2-ylamino)phenyl)-4-methyl-9-oxa-1-thia-3-azaspiro[5.5]undec-2-en-2-amine], the IC50 on Cathepsin D was 14.7 µM; at BACE1 [1], 0.002 µM; in assay [2] (setting [4]) it was less than 0.123 µM; at BACE1 [3], 0.032 µM.

`C[C@]1(c2cc(NC(=O)c3ccc(C#N)cn3)ccc2F)N=C(N)OC2(CCC2)C1(F)F` [Compound 9-162, (R)—N-(3-(6-amino-9,9-difluoro-8-methyl-5-oxa-7-azaspiro[3.5]non-6-en-8-yl)-4-fluorophenyl)-5-cyanopicolinamide]: the IC50 is more than 30 µM at Cathepsin D, 0.015 µM on BACE1 [1], 0.039 µM in assay [2] (setting [4]) and 0.04 µM on BACE1 [3].

On to `CCCn1cc(-c2ccc(F)c(C3(C)CC4(CCOCC4)OC(N)=N3)c2)cn1` (centres unmarked) [Compound 8-107, 4-(2-fluoro-5-(1-propyl-1H-pyrazol-4-yl)phenyl)-4-methyl-1,9-dioxa-3-azaspiro[5.5]undec-2-en-2-amine], for which the IC50 amounted to 20.8 µM at Cathepsin D, 1.68 µM on BACE1 [1], 1.73 µM in assay [2] (setting [4]) and 34.1 µM at BACE1 [3].

For the compound `C[C@@]1(c2cc(NC(=O)c3ccc(Cl)cn3)ccc2F)CC2(CCC(F)(F)CC2)OC(N)=N1` [Compound 9-124, (S)—N-(3-(2-amino-9,9-difluoro-4-methyl-1-oxa-3-azaspiro[5.5]undec-2-en-4-yl)-4-fluorophenyl)-5-chloropicolinamide], the IC50 on Cathepsin D is more than 30 µM; on BACE1 [1], 0.0045 µM; in assay [2] (setting [4]), 0.011 µM; on BACE1 [3], 0.06 µM.

For the compound `C[C@@]1(c2cc(NC(=O)c3ncc(Cl)cc3F)ccc2F)CC2(CCC(F)(F)CC2)OC(N)=N1` [Compound 9-133, (S)—N-(3-(2-amino-9,9-difluoro-4-methyl-1-oxa-3-azaspiro[5.5]undec-2-en-4-yl)-4-fluorophenyl)-5-chloro-3-fluoropicolinamide], the IC50 at Cathepsin D is more than 30 µM; at BACE1 [1], 0.009 µM; in assay [2] (setting [4]) it was 0.016 µM; against BACE1 [3] it was 0.016 µM.

In the case of `C[C@@]1(c2cc(NC(=O)c3ncc(Cl)cc3F)ccc2F)CC2(CCC2)OC(N)=N1` [Compound 9-131, (S)—N-(3-(6-amino-8-methyl-5-oxa-7-azaspiro[3.5]non-6-en-8-yl)-4-fluorophenyl)-5-chloro-3-fluoropicolinamide], the IC50 at Cathepsin D is more than 30 µM; at BACE1 [1], 0.0057 µM; in assay [2] (setting [4]), 0.046 µM; against BACE1 [3], 0.087 µM.

`C[C@@]1(c2cc(NC(=O)c3ccc(Cl)cn3)ccc2F)CC2(CCOCC2)OC(N)=N1` [Compound 9-122, (S)—N-(3-(2-amino-4-methyl-1,9-dioxa-3-azaspiro[5.5]undec-2-en-4-yl)-4-fluorophenyl)-5-chloropicolinamide]: the IC50 was more than 30 µM on Cathepsin D, 0.012 µM on BACE1 [1], 0.004 µM in assay [2] and 0.059 µM against BACE1 [3].

As to `CC1(c2cc(NC(=O)c3ccc(F)cn3)ccc2F)N=C(N)OC2(CCOCC2)C1(F)F` (centres unmarked) [Compound 9-155, N-(3-(2-amino-5,5-difluoro-4-methyl-1,9-dioxa-3-azaspiro[5.5]undec-2-en-4-yl)-4-fluorophenyl)-5-fluoropicolinamide], the IC50 at Cathepsin D was more than 30 µM; at BACE1 [1], 0.031 µM; in assay [2] (setting [4]), 0.177 µM; on BACE1 [3], 0.277 µM.

For the compound `Cc1nc(C(=O)Nc2ccc(F)c(C3(C)N=C(N)OC4(CCC4)C3(F)F)c2)co1` (centres unmarked) [Compound 9-165, N-(3-(6-amino-9,9-difluoro-8-methyl-5-oxa-7-azaspiro[3.5]non-6-en-8-yl)-4-fluorophenyl)-2-methyloxazole-4-carboxamide], the IC50 is more than 30 µM at Cathepsin D, 0.034 µM on BACE1 [1], 0.176 µM in assay [2] (setting [4]) and 0.496 µM on BACE1 [3].

In the case of `C[C@@]1(c2cc(NC(=O)c3ccc(F)cn3)ccc2F)CC2(CCOCC2)OC(N)=N1` [Compound 9-128, (S)—N-(3-(2-amino-4-methyl-1,9-dioxa-3-azaspiro[5.5]undec-2-en-4-yl)-4-fluorophenyl)-5-fluoropicolinamide], the IC50 was more than 30 µM on Cathepsin D, 0.004 µM on BACE1 [1], 0.009 µM in assay [2] (setting [4]) and 0.112 µM on BACE1 [3].

For `CC1(c2cc(NC(=O)c3ccc(C#N)cn3)ccc2F)CC2(CCOCC2)OC(N)=N1` (centres unmarked) [Compound 9-139, N-(3-(2-amino-4-methyl-1,9-dioxa-3-azaspiro[5.5]undec-2-en-4-yl)-4-fluorophenyl)-5-cyanopicolinamide], the IC50 was more than 30 µM on Cathepsin D, 0.009 µM on BACE1 [1], 0.005 µM in assay [2] (setting [4]) and 0.048 µM at BACE1 [3].

For the compound `C[C@@]1(c2cc(NC(=O)c3ccc(Cl)cn3)ccc2F)CC2(CCOCC2)SC(N)=N1` [Compound 9-151, (S)—N-(3-(2-amino-4-methyl-9-oxa-1-thia-3-azaspiro[5.5]undec-2-en-4-yl)-4-fluorophenyl)-5-chloropicolinamide], the IC50 on Cathepsin D was more than 30 µM; on BACE1 [1] it was 0.0097 µM; in assay [2] (setting [4]), 0.0004 µM; against BACE1 [3], 0.005 µM.
